For 26 compounds, IC50 results are on record in patent US20240059703A1 (AMGEN INC., priority 2021, published 2024).

What is called IC50 is the midpoint of a concentration-inhibition curve. A low value points to higher potency.

KRAS G12C, sequence (P01116 other isoform, or with tags, fused parts or gaps G12C/C118A): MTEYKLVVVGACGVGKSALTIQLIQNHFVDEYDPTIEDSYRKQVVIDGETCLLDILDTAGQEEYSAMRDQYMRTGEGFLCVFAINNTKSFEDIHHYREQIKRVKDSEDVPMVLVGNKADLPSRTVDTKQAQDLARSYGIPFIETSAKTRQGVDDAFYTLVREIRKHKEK

For one test, the target named is KRAS G12C (Homo sapiens (Human), UniProt P01116, C118A/G12C). The test can be described thus: 2 h coupled exchange assay. The format is biochemical. The conditions noted are these: Avg 2 h Coupled exchange IC50, 2 h compound pre-incubation. The protocol:
The term “2 h coupled exchange assay” or “20 h coupled exchange assay” as used herein refers to the assay described in the Section entitled “BIOLOGICAL EVALUATION.”
With `C=CC(=O)N1CC2(CCN(c3nc4c(c(-c5c(C)c(Cl)cc6cnn(C)c56)c3F)COC(C)(C)C4)C2)C1` (single isomer, unassigned) [Example 14-78, (M)-1-(6-(4-(5-chloro-1,6-dimethyl-1H-indazol-7-yl)-3-fluoro-7,7-dimethyl-7,8-dihydro-5H-pyrano[4,3-b]pyridin-2-yl)-2,6-diazaspiro[3.4]octan-2-yl)-2-propen-1-one], the IC50 was 23 nM.
In turn, `C=CC(=O)N1CC2(CCN(c3nc4c(c(-c5c(C)c(Cl)cc6cnn(C)c56)c3F)COC(C)(C)C4)C2)C1` (single isomer, unassigned) [Example 14-79, (P)-1-(6-(4-(5-chloro-1,6-dimethyl-1H-indazol-7-yl)-3-fluoro-7,7-dimethyl-7,8-dihydro-5H-pyrano[4,3-b]pyridin-2-yl)-2,6-diazaspiro[3.4]octan-2-yl)-2-propen-1-one] displayed a half-maximal inhibitory concentration (IC50) of 9600 nM.
Same read-out and setting: as for `C=CC(=O)N1CC2(CCN(c3nc4c(c(-c5c(C)ccc6cn[nH]c56)c3C#N)COC(C)(C)C4)C2)C1` (single isomer, unassigned) [Example 14-82, (M)-7,7-dimethyl-4-(6-methyl-1H-indazol-7-yl)-2-(2-(2-propenoyl)-2,6-diazaspiro[3.4]octan-6-yl)-7,8-dihydro-5H-pyrano[4,3-b]pyridine-3-carbonitrile], the figure is 5760 nM; as for `C=CC(=O)N1CC2(CCN(c3nc4c(c(-c5c(C)c(Cl)cc6cnn(C)c56)c3C)COC(C)(C)C4)C2)C1` (single isomer, unassigned) [Example 14-88, (M)-1-(6-(4-(5-chloro-1,6-dimethyl-1H-indazol-7-yl)-3,7,7-trimethyl-7,8-dihydro-5H-pyrano[4,3-b]pyridin-2-yl)-2,6-diazaspiro[3.4]octan-2-yl)-2-propen-1-one], 10400 nM; as for `C=CC(=O)N1CC2(CCN(c3nc4c(c(-c5c(C)ccc6cnn(C)c56)c3C)COC(C)(C)C4)C2)C1` (single isomer, unassigned) [Example 14-100, (M)-1-(6-(4-(1,6-dimethyl-1H-indazol-7-yl)-3,7,7-trimethyl-7,8-dihydro-5H-pyrano[4,3-b]pyridin-2-yl)-2,6-diazaspiro[3.4]octan-2-yl)-2-propen-1-one], 602 nM.
Take `C=CC(=O)N1CC2(CCN(c3nc4c(c(-c5c(C)ccc6cnn(C)c56)c3F)COC(C)(C)C4)C2)C1` (single isomer, unassigned) [Example 14-101, (M)-1-(6-(4-(1,6-dimethyl-1H-indazol-7-yl)-3-fluoro-7,7-dimethyl-7,8-dihydro-5H-pyrano[4,3-b]pyridin-2-yl)-2,6-diazaspiro[3.4]octan-2-yl)-2-propen-1-one]: 301 nM corresponded to half-maximal inhibition (IC50).
As to `C=CC(=O)N1CC2(CCN(c3nc4c(c(-c5c(C)ccc6cnn(C)c56)c3F)COC(C)(C)C4)C2)C1` (single isomer, unassigned) [Example 14-102, (P)-1-(6-(4-(1,6-dimethyl-1H-indazol-7-yl)-3-fluoro-7,7-dimethyl-7,8-dihydro-5H-pyrano[4,3-b]pyridin-2-yl)-2,6-diazaspiro[3.4]octan-2-yl)-2-propen-1-one], 55600 nM corresponded to half-maximal inhibition (IC50).
In turn, `C=CC(=O)N1CC2(CCN(c3nc4cc(-n5ccnc5C)ccc4c(-c4ccccc4Cl)c3C)[C@H]2C)C1` (single isomer, unassigned) [Example 15-5] came in with a half-maximal inhibitory concentration (IC50) of 779 nM.
The compound `C=CC(=O)N1CC2(CCN(c3nc4cc(-n5ccnc5C)ccc4c(-c4ccccc4Cl)c3C)[C@H]2C)C1` (single isomer, unassigned) [Example 15-6] gave an IC50 of 3580 nM.

Still in this test, the particulars now being: Avg 2 h Coupled exchange IC50, 2 h compound pre-incubation, SOS-mediated nucleotide exchange.
Compound `C=CC(=O)N1CC2(CCN(c3cn4ccnc4c(-c4cc(O)ccc4C)c3C#N)C2)C1` [Example 1-29, 8-(5-hydroxy-2-methylphenyl)-6-(2-(2-propenoyl)-2,6-diazaspiro[3.4]octan-6-yl)imidazo[1,2-a]pyridine-7-carbonitrile] displayed an IC50 of 3530 nM.
`C=CC(=O)N1CC2(C1)CN(c1cc3ccccc3c(-c3c(C)ccc4[nH]ncc34)c1C#N)C2` [Example 1-34, 1-(5-methyl-1H-indazol-4-yl)-3-(6-(2-propenoyl)-2,6-diazaspiro[3.3]heptan-2-yl)-2-naphthalenecarbonitrile] gave an IC50 of 823 nM.
Same read-out and setting: under `C=CC(=O)N1CC2(CCN(c3nc(-c4c(C)ccc5[nH]ncc45)c4ccc(C)cc4n3)C2)C1` [Example 1-40, 1-(6-(7-methyl-4-(5-methyl-1H-indazol-4-yl)-2-quinazolinyl)-2,6-diazaspiro[3.4]octan-2-yl)-2-propen-1-one] stands 9010 nM; under `C=C(Br)C(=O)N1CC2(CCN(c3nc4c(F)cccc4c(-c4c(C)ccc5[nH]ncc45)c3C#N)C2)C1` [Example 1-51, 2-(2-(2-bromo-2-propenoyl)-2,6-diazaspiro[3.4]octan-6-yl)-8-fluoro-4-(5-methyl-1H-indazol-4-yl)-3-quinolinecarbonitrile], 791 nM.
Consider `C=CC(=O)N1CC2(CCN(c3nc4c(c(-c5ccccc5F)c3C#N)CCCC4)C2)C1` [Example 2-7, 4-(2-fluorophenyl)-2-(2-(2-propenoyl)-2,6-diazaspiro[3.4]octan-6-yl)-5,6,7,8-tetrahydro-3-quinolinecarbonitrile], for which 2020 nM corresponded to half-maximal inhibition (IC50).
Compound `C=CC(=O)N1CC2(CCN(c3nc4c(c(-c5cc(O)cc(C(F)(F)F)c5F)c3C)CCC(C)(C)C4)C2)C1` [Example 2-22, 1-(6-(4-(2-fluoro-5-hydroxy-3-(trifluoromethyl)phenyl)-3,7,7-trimethyl-5,6,7,8-tetrahydro-2-quinolinyl)-2,6-diazaspiro[3.4]octan-2-yl)-2-propen-1-one] yielded an IC50 of 846 nM.
Compound `C=CC(=O)N1CC2(CCN(c3nc4c(c(-c5c(C)ccc6cn[nH]c56)c3C)CCC(C)(C)C4)C2)C1` [Example 2-23, 1-(6-(3,7,7-trimethyl-4-(6-methyl-1H-indazol-7-yl)-5,6,7,8-tetrahydro-2-quinolinyl)-2,6-diazaspiro[3.4]octan-2-yl)-2-propen-1-one] had an IC50 of 735 nM.
Same read-out and setting: as for `C=CC(=O)N1CC2(CCN(c3nc4c(c(-c5cc(O)cc(F)c5F)c3C)CCC(C)(C)C4)C2)C1` [Example 2-26, 1-(6-(4-(2,3-difluoro-5-hydroxyphenyl)-3,7,7-trimethyl-5,6,7,8-tetrahydro-2-quinolinyl)-2,6-diazaspiro[3.4]octan-2-yl)-2-propen-1-one], the figure is 234 nM; as for `C=CC(=O)N1CC2(CCN(c3nc4ccccc4c(-c4c(Cl)ccc5[nH]ncc45)c3C)C2)C1` [Example 2-29, 1-(6-(4-(5-chloro-1H-indazol-4-yl)-3-methyl-2-quinolinyl)-2,6-diazaspiro[3.4]octan-2-yl)-2-propen-1-one], 903 nM; as for `C=CC(=O)N1CC2(CCN(c3nc4c(c(-c5cccc6ccn(C)c56)c3C#N)COC(C)(C)C4)C2)C1` [Example 2-30, 7,7-dimethyl-4-(1-methyl-1H-indol-7-yl)-2-(2-(2-propenoyl)-2,6-diazaspiro[3.4]octan-6-yl)-7,8-dihydro-5H-pyrano[4,3-b]pyridine-3-carbonitrile], 750 nM.
In turn, `C=CC(=O)N1CC2(CCN(c3nc4c(c(-c5cc(Cl)cc6cnn(C)c56)c3C)COC(C)(C)C4)C2)C1` [Example 2-32, 1-(6-(4-(5-chloro-1-methyl-1H-indazol-7-yl)-3,7,7-trimethyl-7,8-dihydro-5H-pyrano[4,3-b]pyridin-2-yl)-2,6-diazaspiro[3.4]octan-2-yl)-2-propen-1-one] returned an IC50 of 808 nM.
`C=CC(=O)N1CC2(CCN(c3nc4c(c(-c5cc(O)ccc5Cl)c3C)COC(C)(C)C4)C2)C1` [Example 2-35, 1-(6-(4-(2-chloro-5-hydroxyphenyl)-3,7,7-trimethyl-7,8-dihydro-5H-pyrano[4,3-b]pyridin-2-yl)-2,6-diazaspiro[3.4]octan-2-yl)-2-propen-1-one] showed a half-inhibitory concentration (IC50) of 186 nM.
In turn, `C=CC(=O)N1CC2(CCN(c3nc4c(c(-c5cc(O)ccc5C)c3C#N)C3CCC4C3)C2)C1` [Example 2-37, (1R,8S)-6-(5-hydroxy-2-methylphenyl)-4-(2-(2-propenoyl)-2,6-diazaspiro[3.4]octan-6-yl)-3-azatricyclo[6.2.1.0^2,7]undeca-2,4,6-triene-5-carbonitrile|(1S, 8R)-6-(5-hydroxy-2-methylphenyl)-4-(2-(2-propenoyl)-2,6-diazaspiro[3,4]octan-6-yl)-3-azatricyclo[6.2.1.0^2.7]undeca-2,4,6-triene-5-carbonitrile] had an IC50 of 298 nM.
The same measure, in the same setting: under `C=CC(=O)N1CC2(CCN(c3nc4c(c(-c5cc(O)cc6ccncc56)c3C#N)C[C@H]3C[C@@H]4C3(C)C)C2)C1` [Example 2-41, (1R,9R)-6-(6-hydroxy-8-isoquinolinyl)-10,10-dimethyl-4-(2-(2-propenoyl)-2,6-diazaspiro[3.4]octan-6-yl)-3-azatricyclo[7.1.1.0^2,7]undeca-2,4,6-triene-5-carbonitrile] stands 113 nM.
For the compound `C=CC(=O)N1CC2(CCN(c3nc4c(c(-c5cc(O)cc6cccnc56)c3C#N)C[C@H]3C[C@@H]4C3(C)C)C2)C1` [Example 2-43, (1R,9R)-6-(6-hydroxy-8-quinolinyl)-10,10-dimethyl-4-(2-(2-propenoyl)-2,6-diazaspiro[3,4]octan-6-yl)-3-azatricyclo[7.1.1.0^2,7]undeca-2,4,6-triene-5-carbonitrile], the IC50 came out at 193 nM.
On the same count and under the same terms, as for `C=CC(=O)N1CC2(CCN(c3nc4cc(OC)cnc4c(-c4c(C)ccc5[nH]ncc45)c3C)C2)C1` [Example 2-51, 1-(6-(7-methoxy-3-methyl-4-(5-methyl-1H-indazol-4-yl)-1,5-naphthyridin-2-yl)-2,6-diazaspiro[3.4]octan-2-yl)-2-propen-1-one], the figure is 267 nM; as for `C=CC(=O)N1CC2(CCN(c3nc4c(c(-c5ccccc5Cl)c3C#N)C[C@H]3C[C@@H]4C3(C)C)C2)C1` [Example 2-63, (1R,9R)-6-(2-chlorophenyl)-10,10-dimethyl-4-(2-(2-propenoyl)-2,6-diazaspiro[3.4]octan-6-yl)-3-azatricyclo[7.1.1.0^2,7]undeca-2,4,6-triene-5-carbonitrile], 793 nM.
